# Assays:
# [1] = tested on: human alkaline phosphatase (ALP); test: Conversion of CKLP1 by human alkaline phosphatase, LC/MS-MS, pH 7.4; type: biochemical; conditions: up to 2 hours
# Procedure: (§1) Conversion of CKLP1 (200 μM-5.0 mM) was examined by LC/MS-MS following incubation at pH 7.4 with either human alkaline phosphatase (ALP), acid phosphatase, or 5′-nucleotidase (2.01 nM-1.0 μM) for up to 2 hours.
# [2] = tested on: 5′-nucleotidase; test: Conversion of CKLP1 by 5′-nucleotidase, LC/MS-MS, pH 7.4; type: biochemical, human; conditions: up to 2 hours
# Procedure: as §1
# [3] = In vitro conversion of CKLP1 to levcromakalim in human ocular tissues and fluids; type: in vitro ADME; conditions: 10 μM CKLP1, 37° C.
# Procedure: Aqueous humor was collected from each eye and combined in a single 1.5-mL tube. The eyes were then bisected at the equator, and vitreous humor was collected from both eyes, combined, and placed in a 15-mL conical tube and centrifuged at 1500 rpm for 10 minutes. Following centrifugation, the upper supernatant phase (less viscous region) was isolated and placed in a 1.5-mL tube. Tubes containing aqueous and vitreous humor were stored on ice. The following tissues were dissected from the eyes: cornea, retina, optic nerve, sclera, iris, ciliary body, and trabecular meshwork. The tissue samples were placed in 1.5-mL tubes containing approximately 200 μL of 50 mM Tris buffer pH 7.1. Each sample, except for the optic nerve sample, contained tissue from both eyes. Samples were stored on ice. Tissues were independently homogenized with a Polytron PT 1200 (setting 8) and placed on ice. The trabecular meshwork was lysed using a small pestle. In between samples, the homogenizer was cleaned and washed thoroughly with a minimum of 200 mL of distilled water.
# Remaining tissue and debris were pelleted in an Eppendorf 5415C centrifuge at 13,000 rpm for 2 minutes. Supernatants were isolated and placed in clean 1.5-mL tubes. A Bradford protein assay was performed with 5 μL of supernatant of each sample. At the completion of the assay, 200-μL aliquots of each sample were placed in a 96-well plate, and protein concentrations were read using a TECAN Infinite® M200 plate reader at 595 nm. The final concentrations for all samples was 150 μg of protein in a solution of 10 μM CKLP1, except for vitreous humor, which only contained 100 μg of protein in 10 μM CKLP1 due to low protein concentration. There were 18 samples in total. Samples were mixed, briefly centrifuged and then, for each sample, a 100-μL portion was removed and placed in a new tube so that both tubes contained 100 μL (75 μg of protein each except vitreous humor, which contained 50 μg each). All pairs of samples were placed in incubation at 37° C. For each pair of tubes, one tube was incubated for 4 hours and one tube for 24 hours. At the completion of the incubation period, 200 μL of acetonitrile was added to each tube and mixed. Tubes were briefly centrifuged and placed at −80° C.
# [4] = tested on: African green monkeys (IOP); test: Effect of CKLP1 on IOP in African green monkeys; type: in vivo, African green monkey
# Procedure: (§2) To further validate the IOP lowering effects of CKLP1 in large animal models, one eye of five African green monkeys was treated with topical ocular administration of 10 mM CKLP1, while the contralateral eye received vehicle (PBS). Baseline IOP in control and treated eyes were 20.1±1.8 mmHg and 21.9±2.5 mmHg, respectively.
# (§3) For treatment days, 10 mM CKLP1 (dissolved in PBS) was added to one eye of each monkey in a 50 μl topical ocular administration, once daily, for 7 consecutive days, while the contralateral eye received a 50 μl ocular administration of vehicle (PBS).
# [5] = tested on: beagle dogs; test: Safety findings, 28-day topical ophthalmic dosing in beagle dogs; type: in vivo, beagle dog
# Procedure: In the study, dogs (3 males and 3 females) received bilateral daily topical administration of 40 μL/eye of 2.0%, 4.0%, or 8.0% as measured in mg/mL (equivalent to 0.8, 1.6, or 3.2 mg CKLP1 per eye) of CKLP1 in phosphate buffered saline. Based on an average male dog weight of 7.9 kg at the start of the study, these doses were equivalent to 0.20 mg/kg, 0.41 mg/kg, or 0.81 mg/kg and based on an average female dog weight of 6.0 kg at the start of the study, these doses were equivalent to 0.27 mg/kg, 0.53 mg/kg, or 1.07 mg/kg. Blood was collected for toxicokinetic analysis pre-dose and at 1, 2, 4, 8, 12, and 24 hours post dosing on days 1 and 28. In addition, 2 animals of each gender were allowed 336 hours (14 days) of recovery time following the final dose, at which point final blood samples were obtained.
# [6] = tested on: rats; test: 28-day intravenous administration of CKLP1 in rats; type: in vivo, rat
# Text: Three groups of rats were intravenously administered different doses of CKLP1. The study was 28 days long with a 14-day recovery period.
# [7] = tested on: African green monkeys (systemic blood pressure); test: Systemic blood pressure in African green monkeys during 7-day topical CKLP1; type: in vivo, African green monkey; conditions: 10 mM CKLP1, 7 days
# Procedure: as §2, §3
# [8] = tested on: mice (IOP); conditions: previously reported; cited from earlier work
# [9] = tested on: 3D-glaucomatous human trabecular meshwork/Schlemm's canal tissue model; test: Outflow facility by perfusion in 3D-glaucomatous human trabecular meshwork/Schlemm's canal constructs; type: cell-based; conditions: levcromakalim 1 μM, TGF-β2 treated constructs, 4 donors, vs TGF-β2 (P<0.0001) or Y-27632 (P<0.05)
# Procedure: Bioengineered 3D conventional outflow tract constructs using 4 donors (ages 47-91) were treated with […] (5 ng/mL) for 6 days. […] Protein expression of α-smooth muscle actin (α-SMA), CD31, endothelin-I, fibronectin, VE-cadherin, phospho-eNOS and total eNOS was analyzed via western blot. Cellular expression of α-SMA, fibronectin, phospho-eNOS and total eNOS was determined by immunocytochemistry and confocal microscopy. Statistical significance was determined by one-way ANOVA with a Tukey's multiple comparisons test, or by two-way ANOVA.
# [10] = 10 mM CKLP1 topical once daily, 7 days
compound,measurement,setting,value
CC1(C)Oc2ccc(C#N)cc2[C@@H](N2CCCC2=O)[C@@H]1OP(=O)(O)O [CKLP1],rate constant for catalytic conversion (kcat),[1]; CKLP1 200 μM-5.0 mM,0.25 s⁻¹
same,Km,"[1]; CKLP1 200 μM-5.0 mM, read-out: Michaelis constant (Km)",630 µM
same,conversion of CKLP1 to levcromakalim,[1]; human ALP,converted
same,conversion of CKLP1 to levcromakalim,[2],not
same,conversion of CKLP1 to levcromakalim over 24 hours,[3]; human aqueous humor,not
same,conversion of CKLP1 to levcromakalim over 24 hours,[3]; human ciliary body,2.6%
same,conversion of CKLP1 to levcromakalim over 24 hours,[3]; human cornea,0.8%
same,conversion of CKLP1 to levcromakalim over 24 hours,[3]; human iris,3.9%
same,conversion of CKLP1 to levcromakalim over 24 hours,[3]; human optic nerve,0.9%
same,conversion of CKLP1 to levcromakalim over 24 hours,[3]; human retina,0.7%
same,conversion of CKLP1 to levcromakalim over 24 hours,[3]; human sclera,1.6%
same,conversion of CKLP1 to levcromakalim over 24 hours,[3]; human trabecular meshwork,1.6%
same,conversion of CKLP1 to levcromakalim over 24 hours,[3]; human vitreous humor,not
same,IOP reduction compared to baseline,[4]; [10],3.8±1.8 mmHg
same,change in IOP,[4]; [10],16.7±6.7%
same,IOP lowered by (summary),[4]; African green monkeys,approximately 17%
same,non-adverse ocular effects,[5]; 3.2 mg/eye/dose (8%),slight to moderate redness (congestion)
same,"microscopic findings, lacrimal gland",[5]; 2 females at 3.2 mg/eye/dose (8%),mild lacrimal gland acinar atrophy
same,reversibility of ocular findings,[5]; 14-day recovery period,all ocular findings were fully recovered
same,"microscopic findings, corneal epithelium",[5]; males at ≥1.6 mg/eye/dose (4%) and 1 female at 3.2 mg/eye/dose (8%),mild increased mitoses in the corneal epithelium
same,no-observed-adverse-effect level (NOAEL),"[5]; topical, 28 days, % as measured in mg/mL",8.0%
same,"food consumption, body weight, body weight gains vs control","[6]; IV 0.15, 1.5, 15 mg/kg/day, 28 days",no difference
same,Clinical Signs,[6]; IV CKLP1 0.15 mg/kg/day,Red skin forelimbs and hindlimbs; red pinnae; red
same,Clinical Signs,[6]; IV CKLP1 1.5 mg/kg/day,Red skin forelimbs and hindlimbs; red skin
same,Clinical Signs,[6]; IV CKLP1 15 mg/kg/day,Red skin forelimbs and hindlimbs; red skin
same,peripheral vasodilation,[6]; following intravenous administration in rats,induces peripheral vasodilation
same,"dose with red skin forelimbs and hindlimbs, red pinnae, red scrotums","[6]; male and female rats, IV",≥ 0.15 mg/kg/day
same,dose with red skin forepaws,"[6]; males and females, IV",≥ 1.5 mg/kg/day
same,eye color,"[6]; males, 15 mg/kg",Abnormal eye color
same,diastolic pressure following treatment,"[7]; baseline 68.1±6.0, p=0.13",76.0±8.2 mmHg
same,systolic pressure after treatment,"[7]; baseline 118.7±12.0, p=0.6",121.1±7.3 mmHg
same,IOP lowered by,[8],approximately 17%
"CC1(C)Oc2ccc(C#N)cc2[C@@H](N2CCCC2=O)[C@@H]1O [Levcromakalim, levcromakalim, reference compound]",outflow facility (hydraulic conductivity),[9],significantly improved outflow facility
same,outflow facility (hydraulic conductivity),[9]; listed as Leveromakalim,significantly increased outflow facility

# — patent publication US20220387457A1 (Qlaris Bio, Inc., priority 2020, published 2022)
